Measured values published in US11952365B2, “Anti-viral compounds” (Aligos Therapeutics, Inc., priority 2020, dated 2024).
Read-outs that look alike come from different tables or passages of the source.

Experiments:
3CLpro = 3CLpro (Severe acute respiratory syndrome coronavirus 2, UniProt P0DTD1); assay: SARS-CoV-2 3CLpro protease assay (duplex, SAMDI-MS); type: biochemical; parameters: For the duplex assay, 3CLpro and HRV3C was added; conditions: 3CLpro, 30 mins preincubation, read-out: SARS-Cov-2 IC50
[1] = Cytotoxicity plates without OC43 virus (cell-titer-glo); type: cell-based, human; conditions: human; HeLa cells without OC43 virus, class symbols
How it was run: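 HeLa cells seeded overnight, then treated with serially diluted compounds in 2% FBS EMEM, uninfected, in parallel with the OC43 antiviral plates. Incubated 6 days at 33 °C; viability read by CellTiter-Glo luminescence.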

[2] = test system: human beta-coronavirus OC43; assay: microbe, parasite or virus in culture; type: cell-based; conditions: Betacoronavirus 1, OC43, HeLa, 144 h
in vitro [3] = conditions: human
human cathepsin L = target: T1, human cathepsin L (Homo sapiens, UniProt P07711); assay: cathepsin L assay; type: biochemical; conditions: 10 pM human cathepsin L, Z-FR-AMC 2 μM, class symbols
T1 construct: purchased R&D Systems
How it was run: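 Human cathepsin L at 10 pM was preincubated 30 min with compound, then reaction started with Z-FR-AMC (2 μM final). Fluorescence (355/460 nm) read every 2 min for 30 min; IC50 from four-parameter curve fit.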

[4] = test system: SARS-CoV-2-GHB-03021/2020; assay: SARS-CoV-2 Infection Model in Huh7 Cells; type: cell-based; conditions: Severe acute respiratory syndrome coronavirus 2, Huh-7, 96 h, SARS-CoV-2, day 4 p.i., MTS
HRV3C = HRV3C (Human rhinovirus 14, UniProt P03303); assay: HRV3C protease assay (duplex, SAMDI-MS); type: biochemical, HRV; conditions: 30 mins preincubation
How it was run: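 Enzyme preincubated 30 min with compound at ambient temperature, then both biotinylated peptide substrates added (duplex with 3CLpro); 30 min reaction quenched with 0.5% formic acid (final). Product read by SAMDI-MS as product/internal-standard AUC ratio; IC50 from four-parameter fit.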

[5] = test system: SARS-CoV-2-GHB-03021/2020; assay: microbe, parasite or virus in culture; type: cell-based; conditions: Severe acute respiratory syndrome coronavirus 2, Vero C1008, 96 h; read-out: VeroE6 + CP (EC50)
in vitro [6] = conditions: African green monkey, VeroE6 + CP (CC50), Vero E6-eGFP cells with CP-100356, absence of virus, MTS; numeric bounds
[7] = OC43 in HeLa cells, 6 days at 33° C., class symbols, read-out: EC50
[8] = HRV3C, class symbols, read-out: HRV IC50
[9] = HRV3C, bound, read-out: HRV IC50
[10] = OC43 in HeLa cells, 6 days at 33° C., bound, read-out: EC50

Row | Structure (SMILES) | IC50 (3CLpro; class symbols) [µM] | CC50 at 6 days [1] [µM] | EC50 [2, 7] [µM] | CC50 (in vitro [3]) [µM] | IC50 (human cathepsin L) [µM] | EC50 ([4]; class symbols) [µM] | IC50 (HRV3C; [8]) [µM] | EC50 ([4]; numeric bounds) [µM] | EC50 [5] [µM] | IC50 (HRV3C; [9]) [µM] | IC50 (HRV3C; HRV IC50, HRV3C, bound) [µM] | EC50 [2] [µM] | EC50 [2, 10] [µM] | IC50 (HRV3C; HRV IC50, HRV3C, class symbols) [µM] | IC50 (3CLpro; bound) [µM] | CC50 (in vitro [6]) [µM]
1 | O=C(NCc1ccccc1)C(=O)C(C[C@@H]1CCCNC1=O)NC(=O)[C@@H]1[C@H]2CCC[C@H]2CN1C(=O)c1cc2ccccc2[nH]1 (stereo partly drawn) [Compound 17, (1S,3aR,6aS)—N-(4-(benzylamino)-3,4-dioxo-1-((S)-2-oxopiperidin-3-yl)butan-2-yl)-2-(1H-indole-2-carbonyl)octahydrocyclopenta[c]pyrrole-1-carboxamide] | 0.02 to 0.2 | > 10 | 0.1 to 1 | > 10 | 1 to 10 | 1 to 10 | 2 to 20 | – | – | – | – | – | – | – | – | –
2 | O=C(NCc1ccccc1)C(=O)[C@H](C[C@@H]1CCNC1=O)NC(=O)[C@@H]1C[C@@H](C2CCCCC2)CN1C(=O)c1cc2ccccc2[nH]1 [Compound 20] | 0.2 to 2 | > 10 | < 0.1 | 1 to 10 | ≥ 10 | – | 0.2 to 2 | > 100 | 1 to 10 | – | – | – | – | – | – | –
3 | COc1cccc2[nH]c(C(=O)N3C[C@@H]4CCC[C@@H]4[C@H]3C(=O)N[C@@H](C[C@@H]3CCNC3=O)C(=O)CO)nc12 [Compound 37] | 0.02 to 0.2 | > 10 | 1 to 10 | > 100 | ≥ 10 | 1 to 10 | 20 to 100 | – | – | – | – | – | – | – | – | –
4 | COc1cccc2[nH]c(C(=O)N3C[C@@H]4CCC[C@@H]4[C@H]3C(=O)NC(C[C@@H]3CCNC3=O)C(=O)C(N)=O)cc12 (stereo partly drawn) [Compound 56, 3-{[(1S,3aR,6aS)-2-(4-methoxy-1H-indole-2-carbonyl)-hexahydro-1H-cyclopenta[c]pyrrol-1-yl]formamido}-2-oxo-4-[(3S)-2-oxopyrrolidin-3-yl]butanamide] | 0.02 to 0.2 | > 10 | 10 to 100 | > 100 | ≥ 10 | 10 to 100 | 0.2 to 2 | – | – | – | – | – | – | – | – | –
5 | COc1cccc2[nH]c(C(=O)N3C[C@H]4[C@@H]([C@H]3C(=O)N[C@@H](C[C@@H]3CCCNC3=O)C(=O)C(=O)NC3CC3)C4(C)C)cc12 [Compound 57, (3S)—N-cyclopropyl-3-{[(1R,2S,5S)-3-(4-methoxy-1H-indole-2-carbonyl)-6,6-dimethyl-3-azabicyclo[3.1.0]hexan-2-yl]formamido}-2-oxo-4-[(3S)-2-oxopiperidin-3-yl]butanamide] | 0.02 to 0.2 | > 10 | 0.1 to 1 | > 100 | ≥ 10 | 1 to 10 | 0.2 to 2 | – | – | – | – | – | – | – | – | –
6 | N#Cc1cccc2[nH]c(C(=O)N3C[C@@H]4CCC[C@@H]4[C@H]3C(=O)N[C@@H](C[C@@H]3CCNC3=O)C(=O)CO)cc12 [Compound 66, (1S,3aR,6aS)-2-(4-cyano-1H-indole-2-carbonyl)-N-[(2S)-4-hydroxy-3-oxo-1-[(3S)-2-oxopyrrolidin-3-yl]butan-2-yl]-hexahydro-1H-cyclopenta[c]pyrrole-1-carboxamide] | 0.02 to 0.2 | > 10 | 1 to 10 | > 100 | ≥ 10 | 10 to 100 | – | – | – | > 10 | – | – | – | – | – | –
7 | N#Cc1cccc2[nH]c(C(=O)N3C[C@@H]4CCC[C@@H]4[C@H]3C(=O)NC(C[C@@H]3CCNC3=O)C(=O)COCc3ccccc3)cc12 (stereo partly drawn) [Compound 66A, (1S,3aR,6aS)—N-[4-(benzyloxy)-3-oxo-1-[(3S)-2-oxopyrrolidin-3-yl]butan-2-yl]-2-(4-cyano-1H-indole-2-carbonyl)-hexahydro-1H-cyclopenta[c]pyrrole-1-carboxamide] | 0.2 to 2 | > 10 | 0.1 to 1 | > 10 | ≥ 10 | 1 to 10 | – | – | – | > 10 | – | – | – | – | – | –
8 | COc1ccnc2[nH]c(C(=O)N3C[C@@H]4CCC[C@@H]4[C@H]3C(=O)N[C@@H](C[C@@H]3CCNC3=O)C(=O)CO)cc12 [Compound 67, (1S,3aR,6aS)—N-[(2S)-4-hydroxy-3-oxo-1-[(3S)-2-oxopyrrolidin-3-yl]butan-2-yl]-2-{4-methoxy-1H-pyrrolo[2,3-b]pyridine-2-carbonyl}-hexahydro-1H-cyclopenta[c]pyrrole-1-carboxamide] | 0.02 to 0.2 | > 10 | 1 to 10 | > 100 | ≥ 10 | 10 to 100 | – | – | – | > 10 | – | – | – | – | – | –
9 | COc1c(Cl)ccc2[nH]c(C(=O)N3C[C@@H]4CCC[C@@H]4[C@H]3C(=O)N[C@@H](C[C@@H]3CCNC3=O)C(=O)CO)cc12 [Compound 68, (1S,3aR,6aS)-2-(5-chloro-4-methoxy-1H-indole-2-carbonyl)-N—((S)-4-hydroxy-3-oxo-1-((S)-2-oxopyrrolidin-3-yl)butan-2-yl)octahydrocyclopenta[c]pyrrole-1-carboxamide] | 0.02 to 0.2 | > 10 | 0.1 to 1 | > 100 | ≥ 10 | 1 to 10 | – | – | – | > 10 | – | – | – | – | – | –
10 | COCC(=O)[C@H](C[C@@H]1CCNC1=O)NC(=O)[C@@H]1[C@H]2CCC[C@H]2CN1C(=O)c1cc2c(OC)cccc2[nH]1 [Compound 71, (1S,3aR,6aS)-2-(4-methoxy-1H-indole-2-carbonyl)-N-[(2S)-4-methoxy-3-oxo-1-[(3S)-2-oxopyrrolidin-3-yl]butan-2-yl]-hexahydro-1H-cyclopenta[c]pyrrole-1-carboxamide] | 0.2 to 2 | > 10 | 0.1 to 1 | > 100 | ≥ 10 | 1 to 10 | – | – | – | – | > 10 | – | – | – | – | –
11 | COc1cccc2oc(C(=O)N3C[C@@H]4CCC[C@@H]4[C@H]3C(=O)N[C@@H](C[C@@H]3CCNC3=O)C(=O)CO)cc12 [Compound 94, (1S,3aR,6aS)—N-[(2S)-4-hydroxy-3-oxo-1-[(3S)-2-oxopyrrolidin-3-yl]butan-2-yl]-2-(4-methoxy-1-benzofuran-2-carbonyl)-hexahydro-1H-cyclopenta[c]pyrrole-1-carboxamide] | 0.2 to 2 | > 10 | 1 to 10 | > 100 | ≥ 10 | 10 to 100 | – | – | – | > 10 | – | – | – | – | – | –
12 | O=C(NCc1ccccc1)C(=O)[C@H](Cc1cc[nH]n1)NC(=O)[C@@H]1CC2(CC2)CN1C(=O)c1cc2ccccc2[nH]1 [Compound 96, (S)—N—((S)-4-(benzylamino)-3,4-dioxo-1-(1H-pyrazol-3-yl)butan-2-yl)-5-(1H-indole-2-carbonyl)-5-azaspiro[2.4]heptane-6-carboxamide] | 2 to 20 | > 10 | – | > 10 | 1 to 10 | – | – | > 100 | – | – | > 10 | 1 to 10 | – | – | – | –
13 | COc1cccc2[nH]c(C(=O)N3Cc4ccccc4C[C@H]3C(=O)N[C@@H](C[C@@H]3CCNC3=O)C(=O)C(=O)NC3CC3)cc12 [Compound 97, (S)—N—((S)-4-(cyclopropylamino)-3,4-dioxo-1-((S)-2-oxopyrrolidin-3-yl)butan-2-yl)-2-(4-methoxy-1H-indole-2-carbonyl)-1,2,3,4-tetrahydroisoquinoline-3-carboxamide] | 0.2 to 2 | > 10 | – | > 100 | ≥ 10 | – | – | > 100 | – | – | – | – | > 10 | 0.02 to 0.2 | – | –
14 | O=C(NCc1ccccc1)C(=O)[C@H](Cc1ccncc1)NC(=O)[C@@H]1CC2(CC2)CN1C(=O)c1cc2ccccc2[nH]1 [Compound 112] | – | > 10 | – | > 10 | 1 to 10 | – | – | > 100 | – | > 10 | – | – | > 10 | – | > 10 | –
15 | COc1cccc2[nH]c(C(=O)N3C[C@@H]4CCC[C@@H]4[C@H]3C(=O)N[C@@H](CN3C[C@H](O)CC3=O)C(=O)C(=O)NC3CC3)cc12 [Compound 178] | 2 to 20 | – | – | > 10 | ≥ 10 | – | – | > 10 | > 50 | > 10 | – | – | – | – | – | > 50
16 | COc1cccc2[nH]c(C(=O)N3CCC4(CC4)C[C@H]3C(=O)N[C@@H](C[C@@H]3CCNC3=O)C(=O)C(=O)NC3CC3)cc12 [Compound 179] | < 0.02 | – | – | > 10 | 1 to 10 | – | 0.2 to 2 | > 10 | 10 to 100 | – | – | – | – | – | – | > 50
